Measured values taken from patent publication US6087355A, “Cephalosporin antibiotics” (Microcide Pharmaceuticals, Inc., priority 1996, dated 2000).
Structures can show the parent of a compound that is named as a salt.

What was measured:
[1] = tested on: S. aureus 76(Meth^R)(lac^+); assay: In vitro MIC, agar dilution; assay type: cell-based; details: Staphylococcus aureus, read-out: minimum inhibitory concentration (MIC)
Method in brief: (§1)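 Growth inhibition was scored after 16-20 h at 35-36 °C on Mueller-Hinton agar carrying serial two-fold drug concentrations (128 to ≤0.25 μg/mL). Inocula of ~10^4 cfu per spot came from 4-6 h broth cultures.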

S. aureus ATCC 29213 = assay: In vitro MIC, agar dilution; assay type: cell-based; details: Staphylococcus aureus, ATCC29213, read-out: minimum inhibitory concentration (MIC)
Method in brief: as §1

[2] = tested on: S. aureus PC1(Meth^S)(lac^+); assay: In vitro MIC, agar dilution; assay type: cell-based; details: Staphylococcus aureus, read-out: minimum inhibitory concentration (MIC)
Method in brief: as §1

[3] = tested on: S. aureus Spain #356(Meth^R); assay: In vitro MIC, agar dilution; assay type: cell-based; details: Staphylococcus aureus, read-out: minimum inhibitory concentration (MIC)
Method in brief: as §1

E. faecium ATCC 35667 = assay: In vitro MIC, agar dilution; assay type: cell-based; details: Enterococcus faecium, ATCC35667, read-out: minimum inhibitory concentration (MIC)
Method in brief: as §1

[4] = tested on: S. haemolyticus 05(Meth^R); assay: In vitro MIC, agar dilution; assay type: cell-based; details: Staphylococcus haemolyticus, read-out: minimum inhibitory concentration (MIC)
Method in brief: as §1

E. faecium A491(Amp^R) = assay: In vitro MIC, agar dilution; assay type: cell-based; details: Enterococcus faecium, read-out: minimum inhibitory concentration (MIC)
Method in brief: as §1

E. faecalis ATCC 29212 = assay: In vitro MIC, agar dilution; assay type: cell-based; details: Enterococcus faecalis, ATCC29212, read-out: minimum inhibitory concentration (MIC)
Method in brief: as §1

E. coli ATCC 25992 = assay: In vitro MIC, agar dilution; assay type: cell-based; details: Escherichia coli, ATCC25992, read-out: minimum inhibitory concentration (MIC)
Method in brief: as §1

P. aeruginosa ATCC 27853 = assay: In vitro MIC, agar dilution; assay type: cell-based; details: Pseudomonas aeruginosa, ATCC27853, read-out: minimum inhibitory concentration (MIC)
Method in brief: as §1

[5] = tested on: S. aureus ATCC 33593(Meth^R); assay: In vitro MIC, agar dilution; assay type: cell-based; details: Staphylococcus aureus, ATCC33593, read-out: minimum inhibitory concentration (MIC)
Method in brief: as §1

[6] = tested on: S. aureus ATCC 13709(Meth^S); assay: In vitro MIC, agar dilution; assay type: cell-based; details: Staphylococcus aureus, ATCC13709, S. aureus ATCC 13709(Meth^S); read-out: minimum inhibitory concentration (MIC)
Method in brief: as §1

E. faecium VanA(Van^R) = assay: In vitro MIC, agar dilution; assay type: cell-based; details: Enterococcus faecium, read-out: minimum inhibitory concentration (MIC)
Method in brief: as §1

E. faecalis VanB(Van^R) = assay: In vitro MIC, agar dilution; assay type: cell-based; details: Enterococcus faecalis, read-out: minimum inhibitory concentration (MIC)
Method in brief: as §1

[7] = tested on: S. aureus Col8A(Meth^S)(lac^-); assay: In vitro MIC, agar dilution; assay type: cell-based; details: Staphylococcus aureus; S. aureus Col8A(Meth^S)(lac^-); read-out: minimum inhibitory concentration (MIC)
Method in brief: (§2)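 Two-fold dilutions (128 to ≤0.25 μg/mL, in duplicate) were poured into Mueller-Hinton agar. Log-phase broth cultures were spot-inoculated at about 10^4 cfu per spot and incubated 35-36°C for 16-20 hours; the MIC was the lowest concentration inhibiting growth. Col is a high-level PBP2a producer; Col 8A is its isogenic PBP2a-lacking partner.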

[8] = tested on: S. aureus Col(Meth^R)(lac^-); assay: In vitro MIC, agar dilution; assay type: cell-based; details: Staphylococcus aureus, read-out: minimum inhibitory concentration (MIC)
Method in brief: as §2

[9] = tested on: S. aureus strain ATCC 13709 (methicillin-susceptible); assay: Murine model for lethal bacteremic peritonitis; assay type: in vivo, female Swiss-Webster mice; details: Staphylococcus aureus, ATCC13709, SC, 72 h; for responders at 0.3125 mg/kg / responders at 0.625 mg/kg / responders at 2.5 mg/kg / responders at 5 mg/kg: read-out: Survivors; for responders at 1.25 mg/kg: read-out: Survivors (converted); for ED50: two equal doses, IP challenge, read-out: ED50
Method in brief: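 Female Swiss-Webster mice were challenged IP with an LD100 inoculum in 7% hog gastric mucin, then given test drug subcutaneously in twofold increments (0.01–512 mg/kg) as two equal doses at challenge and 2 h later, 10 mice per group. Survival was scored at 72 h; PD50 (total mg/kg) was derived by probit.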

SMILES | MIC [1] [µg/mL] | MIC (S. aureus ATCC 29213) [µg/mL] | MIC [2] [µg/mL] | MIC [3] [µg/mL] | MIC (E. faecium ATCC 35667) [µg/mL] | MIC [4] [µg/mL] | MIC (E. faecium A491(Amp^R)) [µg/mL] | MIC (E. faecalis ATCC 29212) [µg/mL] | MIC (E. coli ATCC 25992) [µg/mL] | MIC (P. aeruginosa ATCC 27853) [µg/mL] | MIC [5] [µg/mL] | MIC [6] [µg/mL] | MIC (E. faecium VanA(Van^R)) [µg/mL] | MIC (E. faecalis VanB(Van^R)) [µg/mL] | MIC [7] [µg/mL] | MIC [8] [µg/mL] | responders at 0.3125 mg/kg [9] [%] | responders at 0.625 mg/kg [9] [%] | responders at 1.25 mg/kg [9] [%] | responders at 2.5 mg/kg [9] [%] | also measured
CN(C)C(=O)[C@@H](N)CSCc1cnccc1SC1=C(C(=O)O)N2C(=O)[C@@H](NC(=O)/C(=N\O)c3nc(N)sc3Cl)[C@H]2SC1 [Cmpd 58, (7R)-7-[(Z)-2-(2-amino-5-chlorothiazol-4-yl)-2-(hydroxyimino)acetamido]-3-(3-(2R-2-N,N-dimethylcarboxamido-2-aminoethylthiomethyl)pyrid-4-ylthio)-3-cephem-4-carboxylate, trifluoroacetic acid salt] | 4 | 0.5 | 1 | 4 | 1 | 4 | 16 | 0.5 | 8 | > 32 | 2 | 0.5 | 2 | 0.5 | 0.5 | 4 | 10 | 10 | 20 | 50 | responders at 5 mg/kg [9]: 50%; ED50 [9]: 4.1 mg/kg
Nc1nc(/C(=N/O)C(=O)N[C@@H]2C(=O)N3C(C(=O)O)=C(Sc4ccncc4CSC4CCNC4)CS[C@H]23)cs1 (stereo partly drawn) [Cmpd 17, (7R)-7-[(Z)-2-(aminothiazol-4-yl)-2-(hydroxyimino)acetamido]-3-[3-(3-pyrrolidinothiomethyl)pyrid-4-ylthio]-3-cephem-4-carboxylate, trifluoroacetic acid salt] | 4 | 0.25 | 0.25 | 4 | 1 | 8 | > 32 | 0.13 | 2 | > 32 | 2 | 0.25 | 0.25 | 0.5 | 0.5 | 2 | 20 | 20 | 50 | 30 | responders at 5 mg/kg [9]: 60%; ED50 [9]: 3.59 mg/kg
NC(=O)[C@@H](N)CSCc1cnccc1SC1=C(C(=O)O)N2C(=O)[C@@H](NC(=O)/C(=N\O)c3nc(N)sc3Cl)[C@H]2SC1 [Cmpd 59, (7R)-7-[(Z)-2-(2-amino-5-chlorothiazol-4-yl)-2-(hydroxyimino)acetamido]-3-(3-(2R-2-carboxamido-2-aminoethylthiomethyl)pyrid-4-ylthio)-3-cephem-4-carboxylate, trifluoroacetic acid salt] | 2 | 0.5 | 0.5 | 4 | 1 | 4 | 16 | 0.5 | 8 | > 32 | 2 | 0.13 | 2 | 0.5 | 0.25 | 2 | 40 | 60 | 40 | 40 | responders at 5 mg/kg [9]: 100%; ED50 [9]: 0.81 mg/kg
